Calls of active or inactive are those of the source. No cut-off for these calls is given here. Bounds are passed on as bounds.

Common to all, as to assay type: functional
One assay relates to HBL-100. Description: Growth inhibition of human HBL100 cells after 48 hrs by sulforhodamine B assay. The conditions noted are these: HBL-100, 48 h.
For assay [1], the system named is HeLa. Description: Growth inhibition of human HeLa cells after 48 hrs by sulforhodamine B assay.
In assay [2] the test system is WiDr. The assay can be described thus: Growth inhibition of human WiDr cells after 48 hrs by sulforhodamine B assay.
Assay [3] deals with T47D. Description: Growth inhibition of human T47D cells after 48 hrs by sulforhodamine B assay.
The next assay deals with A2780. Description: Growth inhibition of human A2780 cells after 48 hrs by sulforhodamine B assay. As to conditions: A2780, 48 h.
In assay [4] the test system is SW1573. Description: Growth inhibition of human SW1573 cells after 48 hrs by sulforhodamine B assay. The conditions noted are these: SW1573, 48 h.
For assay [5], the system named is WiDr. Description: Cell cycle arrest in human WiDr cells assessed as increase in accumulation at sub G0 phase at 15 to 35 uM treated for 24 hrs measured after 24 hrs of drug washout by propidium iodide staining-based FACS analysis.
Assay [6] deals with WiDr. The assay can be described thus: Cell cycle arrest in human WiDr cells assessed as accumulation at G2/M phase at 35 uM after 24 hrs by propidium iodide staining-based FACS analysis.
Assay [7] relates to HeLa. Description: Cell cycle arrest in human HeLa cells assessed as decrease in accumulation at G0/G1 phase at 35 uM after 24 hrs by propidium iodide staining-based FACS analysis.
Assay [8] relates to WiDr. Description: Cell cycle arrest in human WiDr cells assessed as decrease in accumulation at S phase at 35 uM after 24 hrs by propidium iodide staining-based FACS analysis.
Assay [9] has as its system HeLa. The assay can be described thus: Cell cycle arrest in human HeLa cells assessed as accumulation at G2/M phase at 35 uM after 24 hrs by propidium iodide staining-based FACS analysis.
Assay [10] relates to SW1573. The assay can be described thus: Cell cycle arrest in human SW1573 cells assessed as decrease in accumulation at S phase at 15 uM after 24 hrs by propidium iodide staining-based FACS analysis.
The test system of assay [11] is T47D. The assay can be described thus: Cell cycle arrest in human T47D cells assessed as accumulation at G2/M phase at 35 uM after 24 hrs by propidium iodide staining-based FACS analysis.
Assay [12] relates to SW1573. The assay can be described thus: Cell cycle arrest in human SW1573 cells assessed as accumulation at G2/M phase at 15 uM after 24 hrs by propidium iodide staining-based FACS analysis.
The test system of assay [13] is SW1573. The assay can be described thus: Cell cycle arrest in human SW1573 cells assessed as accumulation at S phase at 35 uM after 24 hrs by propidium iodide staining-based FACS analysis.
The subject of assay [14] is HeLa. The assay can be described thus: Cell cycle arrest in human HeLa cells assessed as accumulation at G2/M phase at 15 uM after 24 hrs by propidium iodide staining-based FACS analysis.
For assay [15], the system named is T47D. The assay can be described thus: Cell cycle arrest in human T47D cells assessed as decrease in accumulation at S phase at 35 uM after 24 hrs by propidium iodide staining-based FACS analysis.
The test system of assay [16] is SW1573. Description: Cell cycle arrest in human SW1573 cells assessed as accumulation at G2/M phase at 35 uM after 24 hrs by propidium iodide staining-based FACS analysis.
Assay [17] has as its system HeLa. The assay can be described thus: Cell cycle arrest in human HeLa cells assessed as decrease in accumulation at S phase at 15 uM after 24 hrs by propidium iodide staining-based FACS analysis.
The test system of assay [18] is SW1573. The assay can be described thus: Cell cycle arrest in human SW1573 cells assessed as decrease in accumulation at G0/G1 phase at 35 uM after 24 hrs by propidium iodide staining-based FACS analysis.
Assay [19] concerns HeLa. Description: Cell cycle arrest in human HeLa cells assessed as accumulation at S phase at 35 uM after 24 hrs by propidium iodide staining-based FACS analysis.
In assay [20] the test system is T47D. The assay can be described thus: Cell cycle arrest in human T47D cells assessed as increase in accumulation at sub G0 phase at 15 to 35 uM treated for 24 hrs measured after 24 hrs of drug washout by propidium iodide staining-based FACS analysis.

As for `C=C(C(=O)O)[C@@H]1CC[C@@]2(C)CCCC(C)=C2C1`, the pGI50 with HBL-100, in the assay with HeLa [1], in the assay on WiDr [2], with T47D [3], in the assay on A2780 and with SW1573 [4] was 4 each time. Moreover, the GI50 in the assay with HBL-100 (read-out: GI50), in the assay on HeLa [1] (read-out: GI50), with WiDr [2] (read-out: GI50), with T47D [3] (read-out: GI50), with A2780 (read-out: GI50) and in the assay on SW1573 [4] (read-out: GI50) was greater than 100 µM each time.

Take `C=C(C(=O)OC)[C@@H]1CCC2=C[C@H](O)C[C@H](C)[C@@]2(C)C1`: the outcome in the assay on WiDr [5], in the assay on WiDr [6], with HeLa [7], with WiDr [8], with HeLa [9] and with SW1573 [10] was Active. Further, the outcome in the assay on T47D [11], in the assay on SW1573 [12], with SW1573 [13], in the assay on HeLa [14], in the assay on T47D [15] and with SW1573 [16] was Active. The outcome with HeLa [17], with SW1573 [18], in the assay with HeLa [19] and with T47D [20] was Active. Also, the GI50 in the assay on HBL-100 (read-out: GI50) was 12 µM; with HBL-100 (read-out: pGI50 (converted)) it was 4.91 µM; in the assay on HeLa [1] (read-out: GI50) it was 29 µM; with HeLa [1] (read-out: pGI50 (converted)), 4.54 µM; in the assay with WiDr [2] (read-out: GI50), 17 µM; with WiDr [2] (read-out: pGI50 (converted)) it was 4.77 µM. For the same compound, the GI50 with T47D [3] (read-out: GI50) was 11 µM; with T47D [3] (read-out: pGI50 (converted)), 4.97 µM; with A2780 (read-out: GI50) it was 11 µM; with A2780 (read-out: pGI50 (converted)), 4.95 µM; with SW1573 [4] (read-out: GI50), 5 µM; in the assay with SW1573 [4] (read-out: pGI50 (converted)) it was 5.3 µM.

On to `C=C(C(=O)OC)[C@@H]1CC[C@@]2(C)CCCC(C)=C2C1`, for which the GI50 is 14 µM with HBL-100 (read-out: GI50); 4.86 µM in the assay on HBL-100 (read-out: pGI50 (converted)); 13 µM in the assay on HeLa [1] (read-out: GI50); 4.88 µM in the assay on HeLa [1] (read-out: pGI50 (converted)); 38 µM in the assay on WiDr [2] (read-out: GI50); 4.45 µM in the assay with WiDr [2] (read-out: pGI50 (converted)). The GI50 with T47D [3] (read-out: GI50) is 35 µM; in the assay on A2780 (read-out: GI50), 18 µM; with A2780 (read-out: pGI50 (converted)) it was 4.74 µM; with SW1573 [4] (read-out: GI50), 18 µM; with SW1573 [4] (read-out: pGI50 (converted)), 4.74 µM. The pGI50 in the assay on T47D [3] amounted to 4.48.

As to `CC[C@@]1(O)C(=O)OCc2c1cc1n(c2=O)Cc2cc3ccccc3nc2-1` [CAMPTOTHECIN], the GI50 was found to be 0.23 µM with HBL-100 (read-out: GI50); 1.3 µM in the assay with HeLa [1] (read-out: GI50); 1.7 µM in the assay on WiDr [2] (read-out: GI50); 1.9 µM in the assay on T47D [3] (read-out: GI50); 0.46 µM in the assay with A2780 (read-out: GI50); 0.21 µM in the assay with SW1573 [4] (read-out: GI50).

For the compound `O=c1[nH]cc(F)c(=O)[nH]1` [FLUOROURACIL], the GI50 with HBL-100 (read-out: GI50) was determined as 5.5 µM; in the assay on HeLa [1] (read-out: GI50), 19 µM; with WiDr [2] (read-out: GI50), 50 µM; in the assay on T47D [3] (read-out: GI50), 29 µM; with A2780 (read-out: GI50), 4.4 µM; in the assay on SW1573 [4] (read-out: GI50), 4.1 µM.

For the compound `C=C(C(=O)O)[C@@H]1CC[C@@]2(C)CCC[C@@](C)(O)[C@@H]2C1` [ILICIC ACID], the pGI50 in the assay on HBL-100, with HeLa [1], with WiDr [2], in the assay with T47D [3], in the assay on A2780 and with SW1573 [4] was 4 in each case. Also, the GI50 in the assay with HBL-100 (read-out: GI50), with HeLa [1] (read-out: GI50), in the assay with WiDr [2] (read-out: GI50), with T47D [3] (read-out: GI50), in the assay on A2780 (read-out: GI50) and in the assay on SW1573 [4] (read-out: GI50) was greater than 100 µM in each case.

Consider `C=C(CO)[C@@H]1CC[C@@]2(C)CCC[C@@](C)(O)[C@@H]2C1` [ILICIC ALCOHOL], for which the pGI50 in the assay with HBL-100, with HeLa [1], in the assay with WiDr [2], with T47D [3], with A2780 and in the assay with SW1573 [4] was 4 in each case. For the same compound, the GI50 with HBL-100 (read-out: GI50), in the assay with HeLa [1] (read-out: GI50), with WiDr [2] (read-out: GI50), in the assay with T47D [3] (read-out: GI50), with A2780 (read-out: GI50) and in the assay with SW1573 [4] (read-out: GI50) was greater than 100 µM each time.

Take `C=C(C(=O)O)[C@@H]1CCC2=CC(=O)C[C@H](C)[C@@]2(C)C1` [TESSARIC ACID]: the pGI50 with HBL-100, in the assay with HeLa [1], with WiDr [2], in the assay on T47D [3], with A2780 and with SW1573 [4] was 4 throughout. For the same compound, the GI50 in the assay with HBL-100 (read-out: GI50), in the assay on HeLa [1] (read-out: GI50), with WiDr [2] (read-out: GI50), in the assay on T47D [3] (read-out: GI50), in the assay with A2780 (read-out: GI50) and in the assay on SW1573 [4] (read-out: GI50) was greater than 100 µM in each case.

Consider `C=C(C(=O)OC)[C@@H]1CC[C@@]2(C)CCC[C@@](C)(O)[C@@H]2C1` [VACHANIC ACID METHYLESTER], for which the pGI50 in the assay with HBL-100 was found to be 4.13; with HeLa [1], 4; in the assay with WiDr [2], 4; in the assay on T47D [3], 4; in the assay on A2780, 4; with SW1573 [4], 4. In addition, the GI50 in the assay on HBL-100 (read-out: GI50) is 74 µM; in the assay on HeLa [1] (read-out: GI50), greater than 100 µM; in the assay on WiDr [2] (read-out: GI50), greater than 100 µM; in the assay on T47D [3] (read-out: GI50), greater than 100 µM; in the assay with A2780 (read-out: GI50) it was greater than 100 µM; with SW1573 [4] (read-out: GI50), greater than 100 µM.

For the origin of these results see ChEMBL document CHEMBL1152527, “Tessaric acid derivatives induce G2/M cell cycle arrest in human solid tumor cell lines” (2009).
